# From ChEMBL document CHEMBL1201862, “PubChem BioAssay data set” (2004)
# Values joined by “and” are separate entries in the source; they are usually repeats but may differ in a detail not shown here. Identical values can stand only once.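 Following 48 hours of exposure in 96-well plates, responses at five concentrations were used to interpolate endpoints linearly. GI50: concentration for 50% inhibition of growth.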 Active and inactive are the calls of the source. Rule as the data show it: active = GI50 up to about 1.1 µM and inactive = higher.
# Legend:
# Experiment in all cases: NCI anticancer screen, dose series, 48 h
# [1] = system: HOP-92
# [2] = system: U-251
# [3] = system: NCI-H522
# [4] = system: CAKI-1
# [5] = system: CCRF-CEM
# [6] = system: SF-539
# [7] = system: OVCAR-8
# [8] = system: SNB-75
# [9] = system: M14
# [10] = system: RXF 393
# [11] = system: SW-620
# [12] = system: RPMI-8226
# [13] = system: HCT-15
# [14] = system: HT-29
# [15] = system: LXFL 529
# [16] = system: MOLT-4
# [17] = system: SNB-78
# [18] = system: NCI-H23
# [19] = system: M19-MEL
# [20] = system: HCT-116
# [21] = system: DMS-114
# [22] = system: DMS-273
# [23] = system: HL-60
# [24] = system: OVCAR-4
# [25] = system: DLD-1
# [26] = system: SK-MEL-28
# [27] = system: NCI-H226
# [28] = system: LOX IMVI
# [29] = system: SK-MEL-5
# [30] = system: KM12
# [31] = system: OVCAR-3
# [32] = system: 786-0
# [33] = system: SK-OV-3
# [34] = system: K562
# [35] = system: ACHN
# [36] = system: TK-10
# [37] = system: UACC-62
# [38] = system: KM-20L2
# [39] = system: UACC-257
# [40] = system: EKVX
# [41] = system: SF-295
# [42] = system: A549
# [43] = system: IGROV-1
# [44] = system: SF-268
# [45] = system: SR
smiles,measurement,setting,value
NCCSSC/C=C\CSSCCN,GI50,[1],38 µM (inactive) and 41.6 µM (inactive)
same,GI50,[2],34.4 µM (inactive) and 20.6 µM (inactive)
same,GI50,[3],15.7 µM (inactive) and 15.5 µM (inactive)
same,GI50,[4],33.7 µM (inactive) and 38.8 µM (inactive)
same,GI50,[5],5.56 µM (inactive)
same,GI50,[6],29.6 µM (inactive) and 18.1 µM (inactive)
same,GI50,[7],17.6 µM (inactive) and 27.2 µM (inactive)
same,GI50,[8],34.8 µM (inactive) and > 53.3 µM (inactive)
same,GI50,[9],17.8 µM (inactive) and 31.5 µM (inactive)
same,GI50,[10],54.1 µM (inactive) and 35.9 µM (inactive)
same,GI50,[11],16.2 µM (inactive) and 13.5 µM (inactive)
same,GI50,[12],26.2 µM (inactive) and 21.9 µM (inactive)
same,GI50,[13],46.9 µM and 34.3 µM
same,GI50,[14],26.6 µM (inactive) and 34.6 µM (inactive)
same,GI50,[15],23.9 µM (inactive) and 20.1 µM (inactive)
same,GI50,[16],18.6 µM (inactive) and 15.5 µM (inactive)
same,GI50,[17],35.2 µM (inactive) and 28.4 µM (inactive)
same,GI50,[18],29.6 µM (inactive) and 40.7 µM (inactive)
same,GI50,[19],50.9 µM (inactive) and 29.4 µM (inactive)
same,GI50,[20],40.3 µM (inactive) and 36.8 µM (inactive)
same,GI50,[21],30.8 µM (inactive) and 20 µM (inactive)
same,GI50,[22],41.1 µM (inactive) and 22 µM (inactive)
same,GI50,[23],7.06 µM (inactive) and 14.1 µM (inactive)
same,GI50,[24],18.8 µM (inactive) and 26.7 µM (inactive)
N#CC(c1ccc(Cl)cc1)c1c(=O)[nH]c2ccc(N)cc2[n+]1[O-] (stereo unspecified),GI50,[25],> 100 µM (inactive)
same,GI50,[26],> 100 µM (inactive)
same,GI50,[1],> 100 µM (inactive)
same,GI50,[27],> 100 µM (inactive)
same,GI50,[28],> 100 µM (inactive)
same,GI50,[3],> 100 µM (inactive)
same,GI50,[4],> 100 µM (inactive)
same,GI50,[29],> 100 µM (inactive)
same,GI50,[5],> 100 µM (inactive)
same,GI50,[6],> 100 µM (inactive)
same,GI50,[30],> 100 µM (inactive)
same,GI50,[31],> 100 µM (inactive)
same,GI50,[8],> 100 µM (inactive)
same,GI50,[9],> 100 µM (inactive)
same,GI50,[32],> 100 µM (inactive)
same,GI50,[11],> 100 µM (inactive)
same,GI50,[33],> 100 µM (inactive)
same,GI50,[12],> 100 µM (inactive)
same,GI50,[34],> 100 µM (inactive)
same,GI50,[35],> 100 µM (inactive)
same,GI50,[36],> 100 µM (inactive)
same,GI50,[14],> 100 µM (inactive)
same,GI50,[37],> 100 µM (inactive)
same,GI50,[38],> 100 µM (inactive)
same,GI50,[15],> 100 µM (inactive)
same,GI50,[39],> 100 µM (inactive)
same,GI50,[16],> 100 µM (inactive)
same,GI50,[40],> 100 µM (inactive)
same,GI50,[41],> 100 µM (inactive)
same,GI50,[42],> 100 µM (inactive)
same,GI50,[43],> 100 µM (inactive)
same,GI50,[44],> 100 µM (inactive)
same,GI50,[45],> 100 µM (inactive)
same,GI50,[19],> 100 µM (inactive)
same,GI50,[20],> 100 µM (inactive)
same,GI50,[22],> 100 µM (inactive)
same,GI50,[23],> 100 µM (inactive)
